# Experimental data as given in US11135236B2, “Retinoic acid receptor gamma agonists to attenuate anthracycline-induced cardiotoxicity” (Northwestern University, priority 2018, dated 2021).
# Legend:
# [1] = tested on: RARG-WT hiPSC-CMs; assay: caspase 3 and 7 activity after 24 h doxorubicin (Caspase 3/7-Glo); type: cell-based, human
# Method: (§1) 384-well plate-based cell viability, caspase 3/7 activity, and reactive oxygen species (ROS) assays. […] Luminescence was measured using a VarioSkan Lux Multi-Mode Reader (Thermo Scientific) with an integration time of 0.25 sec. 10 μM staurosporine (MedChemExpress) was used as a positive control. […] 10 μM staurosporine and 50 μM menadione (both MedChemExpress) was used as a positive control, respectively. Data were analyzed using Prism 7.0 software (GraphPad) using standard dose-response guidelines.
# [2] = tested on: hiPSC-CMs; assay: RNA-seq gene expression analysis of hiPSC-CMs after doxorubicin; conditions: 1 μM doxorubicin, 24 h
# From the text: RNA-seq gene expression analysis. […] RNA was extracted using TRI Reagent and Direct-zol RNA microprep kit (both Zymo) including on-column DNase digestion to remove genomic DNA. Samples were quantified using an Agilent 2100 Bioanalyzer and passed QC. Library preparation was done using a TruSeq RNA v2 kit (Illumina) and sequencing with NextSeq 500 instrument (Illumina) by Northwestern's NuSeq core facility, generating ˜40 million single-end 75 bp reads for each sample. Reads were mapped to the GRCh38 reference human genome using Subread software (Liao et al., 2013). Gene expression levels and exon usage were estimated using featureCounts function in the Subread software (Liao et al., 2013). Differential gene expression analysis was done using Deseq2 package (Love et al., 2014) and R (v3.3.3).
# [3] = tested on: Hs 578T; assay: breast cancer cell viability after 72 h of doxorubicin and RARG agonists co-treatment; conditions: doxorubicin 72 h, Vehicle (no agonist)
# Method: as §1
# Breast cancer cell lines. Four human breast cancer cell lines were used, MCF7 (adenocarcinoma, ATCC HTB-22) and Hs 578T (carcinsarcoma, ATCC HTB-126) both cultured in RPMI 1640 (Corning) with 10% FBS (Opti-Gold, GenDEPOT), MDA-MB-231 (adenocarcinoma, ATCC HTB-26) and MDA-MB-468 (adenocarcinoma, ATCC HTB-131) both cultured in DMEM (Corning) with 10% FBS. All cells were cultured on uncoated tissue culture plates (Greiner) and passaged with TrypLE Express (Gibco).
compound,measurement,setting,value
COc1cccc2c1C(=O)c1c(O)c3c(c(O)c1C2=O)C[C@@](O)(C(=O)CO)C[C@@H]3O[C@H]1C[C@H](N)[C@H](O)[C@H](C)O1 [doxorubicin],"LD50, caspase 3 and 7 activity",[1],0.683 µM
same,Log2fc AC009014.3,[2],5.25
same,Log2fc AC010136.2,[2],−3.13
same,Log2fc ADCYAP1R1,[2],6.25
same,Log2fc AL591893.1,[2],6.49
same,Log2fc BUB1B,[2],−2.89
same,Log2fc C11orf87,[2],−3.03
same,Log2fc CA7,[2],5.41
same,Log2fc CAV3,[2],−3.53
same,Log2fc CCDC60,[2],4.98
same,Log2fc CCDC178,[2],5.45
same,Log2fc CENPA,[2],−2.97
same,Log2fc CENPE,[2],−3.10
same,Log2fc CENPI,[2],−3.23
same,Log2fc CHI3L2,[2],5.04
same,Log2fc CLCA2,[2],5.42
same,Log2fc CMB9.22P13.2,[2],4.99
same,Log2fc CRTAC1,[2],5.32
same,Log2fc CSTA,[2],5.15
same,Log2fc CTD.2083E4.7,[2],−3.85
same,Log2fc CYP2J2,[2],−2.82
same,Log2fc DAND5,[2],−4.17
same,Log2fc DIRAS2,[2],−3.30
same,Log2fc DOK7,[2],−3.42
same,Log2fc DORAS1,[2],−2.90
same,Log2fc EN2,[2],4.93
same,Log2fc ETV7,[2],6.04
same,Log2fc FABP5P3,[2],4.97
same,Log2fc FAM196A,[2],6.36
same,Log2fc FBXL22,[2],−2.80
same,Log2fc FBXO40,[2],−2.86
same,Log2fc FOXD3,[2],5.31
same,Log2fc FUT1,[2],−2.91
same,Log2fc GCK,[2],−3.14
same,Log2fc GDNF,[2],5.54
same,Log2fc GPR87,[2],6.48
same,Log2fc GRHL3,[2],5.45
same,Log2fc HIST1H2AG,[2],5.29
same,Log2fc HIST1H2AI,[2],5.70
same,Log2fc HIST1H2BF,[2],6.22
same,Log2fc HIST1H2BG,[2],4.94
same,Log2fc HIST1H3A,[2],5.14
same,Log2fc HIST1H3H,[2],5.59
same,Log2fc HIST1H3J,[2],5.16
same,Log2fc HIST1H4B,[2],5.29
same,Log2fc HPR,[2],−3.01
same,Log2fc HRK,[2],−3.01
same,Log2fc IGFL3,[2],5.18
same,Log2fc INSM1,[2],4.97
same,Log2fc KCNK3,[2],−3.07
same,Log2fc KCNK10,[2],6.80
same,Log2fc KIF18B,[2],−2.86
same,Log2fc LINC01164,[2],4.96
same,Log2fc LINC01224,[2],−3.31
same,Log2fc LINC01489,[2],−3.45
same,Log2fc LRRC10,[2],−3.05
same,Log2fc LRRC14B,[2],−4.13
same,Log2fc MIR145,[2],−3.74
same,Log2fc NEIL3,[2],−2.89
same,Log2fc NFE2,[2],−3.03
same,Log2fc NHLH2,[2],7.10
same,Log2fc NKX1.2,[2],5.72
same,Log2fc NMUR1,[2],−2.85
same,Log2fc NOTO,[2],5.13
same,Log2fc NPBWR1,[2],5.06
same,Log2fc NUF2,[2],−2.87
same,Log2fc PAX5,[2],6.11
same,Log2fc PEG13,[2],−3.16
same,Log2fc POU3F1,[2],7.21
same,Log2fc PRSS42,[2],−2.89
same,Log2fc PRSS44,[2],−3.02
same,Log2fc RP1.34B20.4,[2],5.94
same,Log2fc RP1.46F2.3,[2],−3.03
same,Log2fc RP3.326I13.1,[2],5.19
same,Log2fc RP3.412A9.12,[2],−2.87
same,Log2fc RP4.794I6.4,[2],5.33
same,Log2fc RP5.1139B12.4,[2],−3.80
same,Log2fc RP5.1148A21.3,[2],5.37
same,Log2fc RP5.884C9.2,[2],5.53
same,Log2fc RP11.108M9.3,[2],−4.12
same,Log2fc RP11.1149O23.2,[2],5.86
same,Log2fc RP11.19O2.1,[2],−3.69
same,Log2fc RP11.234B24.2,[2],−2.89
same,Log2fc RP11.529G21.2,[2],5.03
same,Log2fc RP11.712B9.2,[2],5.10
same,Log2fc RPL7P3,[2],−3.03
same,Log2fc SEC14L5,[2],−3.33
same,Log2fc SLC4A11,[2],5.81
same,Log2fc SLC5A1,[2],−2.94
same,Log2fc TFAP2C,[2],4.93
same,Log2fc TGFB111,[2],−2.77
same,Log2fc TMEM72,[2],−2.93
same,Log2fc TMEM88,[2],−2.81
same,Log2fc TMEM158,[2],5.19
same,Log2fc TMEM229B,[2],4.99
same,Log2fc TNFRSF10A,[2],5.25
same,Log2fc UTS2R,[2],−3.09
same,Log2fc XIRP2,[2],−2.88
same,Log2fc ZNF385C.1,[2],−3.34
same,"genes associated with apoptosis, DNA damage, oxidative stress, and doxorubicin resistance",[2]; RNA-seq,significant upregulation
same,genes associated with cardiac function,[2]; RNA-seq,downregulation
same,LD50,[3],1.829 µM
